In US12576107B2, “Methods of treating chronic inflammatory diseases” (METIMEDI PHARMACEUTICALS CO., LTD., priority 2018, dated 2026):

How the values were obtained:
nuclear factor-kappa B = assay: Immunocytochemistry of nuclear factor-kappa B in ARPE-19 cells; format: cell-based, Human; conditions: 2.5 mM, hypoxia
Method: (§1) Human retinal pigment epithelium cell line, ARPE-19, was purchased from American Type Culture Collection (Manassas, VA, USA). The ARPE-19 cells were maintained in RPMI1640 containing 10% fetal bovine serum (Life Technologies, Gaithersburg, MD, USA), 100 IU/ml penicillin, and 100 μg/ml streptomycin (Welgene, Daegu, South Korea).
ARPE-19 and SK-N-SH cells were fixed on bio-coated coverslips (BD bioscience, San Jose, CA, USA) by 4% PFA for 20 min and then incubated with the primary antibodies for 15 h. The primary antibodies were as follows: HIF-1a (1:300, BD Biosciences, San Jose, CA, USA); LDH-A (1:300, Santa Cruz Biotechnology, Santa Cruz, CA, USA); LDH-B (1:300, Santa Cruz Biotechnology, Santa Cruz, CA, USA); NF-κB (1:300, Santa Cruz Biotechnology, Santa Cruz, CA, USA); TLR-4 (1:300, Santa Cruz Biotechnology, Santa Cruz, CA, USA); apoE (1:200, Santa Cruz Biotechnology, Santa Cruz, CA, USA). After PBS wash, the cells were incubated with anti-mouse secondary biotinylated antibody (1:2000, Vector Laboratorie, Burlingame, CA, USA) and visualized with streptavidin conjugated to Fluorescein (Vector Laboratorie, Burlingame, CA, USA). […] Confocal fluorescence images were obtained with confocal laser scanning microscopy (LSCM, Nikon A1+, Tokyo, Japan) under a 60× oil immersion lens.

6-OHDA injected rats = assay: Parkinson's disease model, desipramine and 6-OHDA injection; format: in vivo, Sprague-Dawley (SD) rats; conditions: 2 mg/kg daily subcutaneous 21 days; 6-OHDA rats
Method: Animals. […] Eight-week old male Sprague-Dawley (SD) rats were obtained from Samtako Co. (Osan, Gyeonggi-do, Republic of Korea) and bred under specific-pathogen-free (SPF) conditions. All animals were maintained in a 12-hour light/dark cycle at 22-25° C. with free access to food and water.
Desipramine (12.5 mg/kg; noradrenaline transporter blocker; Sigma Aldrich, St. Louis, USA) was dissolved in saline for intraperitoneal injection. 6-OHDA (20 μg/rat, Sigma Aldrich, St. Louis, USA) was dissolved in saline for intracranial injection.
Injection of desipramine and 6-OHDA. The animals were injected with desipramine into the abdominal cavity (intraperitoneal injection) 30 min before 6-OHDA injection. 30 min after Desipramine injection, the animals were placed in a small acrylic cage that was coupled with an anesthesia machine that allowed them to breathe freely under gaseous anesthesia (2% isoflurane, Spartanburg, SC, USA). […] The animal fur of head was shaved with an electric clipper, and the skin was swabbed with iodine. All the surgical materials disinfected with 70% ethanol. Hamilton syringe barrel inner space was cleaned with distilled water and 70% ethanol. The Hamilton syringe was placed in the syringe holder. […] The three coordinates (AP: −5.6, LM: 2.0, and DV: −7.6) on the manipulator (in mm) were read and used as the starting point. […]

hypoxia-mediated factors = assay: Eye CID in vitro experiment, Western blot in ARPE-19 cells; format: cell-based, Human; conditions: 2.5 mM; ARPE-19 cells (retinal pigment epithelium); normoxia and hypoxia
Method: as §1
To prepare whole cell lysate, cells were lysed with lysis buffer (1% NP-40, 0.25% sodium deoxycholate, 150 mM NaCl, 1 mM EDTA, 1% Triton X-100, 50 mM Tris-HCl (pH 7.4), 10% Glycerol) with protease inhibitor cocktail (Roche, Basel, Switzerland) and phosphatase inhibitors (NA3VO4 1 mM, NaF 100 mM). Then, protein concentration was measured using the Bicinchoninic acid (BCA) assay kit (Thermo Scientific, Waltham, MA). Whole cell or nuclear lysates were transferred onto polyvinylidene fluoride membranes (Merck Millipore, Billerica, MA, USA). After blocking in 5% non-fat milk (Bio-Rad, Hercules, CA, USA) for 1 h, the membranes were incubated overnight at 4° C. with primary antibody diluted in TBST containing 100 mM Tris-HCl (pH 7.5), 1.5 M NaCl, and 0.5% Tween-20 obtained from Sigma-Aldrich, to which 5% BSA and 0.1% sodium azide (Sigma-Aldrich) had been added. Specific primary antibodies to HIF-1α (1:1000), HIF-2α (1:1000), LDH-A (1:1000), LDH-B (1:1000), TLR-4 (1:1000), NF-κB (1:1000), VEGF (1:1000), α-tubulin (1:1000), Actin (1:1000), and GAPDH (1:5000). […]

CC(O)C(=O)[O-].CC(O)C(=O)[O-].[Ca+2] (stereo not drawn) [calcium lactate]
inflammatory factor (nuclear factor-kappa B), immunocytochemistry (nuclear factor-kappa B): decreased
dopaminergic neuron (tyrosine hydroxylase staining) (6-OHDA injected rats): Recovery
hypoxia-mediated factors, Western blot (hypoxia-mediated factors): decreased
